Results on 3 molecules are retold here after paper PMC10491595, “Activation of the integrated stress response by inhibitors of its kinases” (Nature Communications, 2023).

The target of data set [1] is T1, GCN2 (Homo sapiens, UniProt Q9P2K8).
T1 construct: gene EIF2AK4; GST-GCN2 fragment (192-1024)
T1 sequence (Q9P2K8 192-1024): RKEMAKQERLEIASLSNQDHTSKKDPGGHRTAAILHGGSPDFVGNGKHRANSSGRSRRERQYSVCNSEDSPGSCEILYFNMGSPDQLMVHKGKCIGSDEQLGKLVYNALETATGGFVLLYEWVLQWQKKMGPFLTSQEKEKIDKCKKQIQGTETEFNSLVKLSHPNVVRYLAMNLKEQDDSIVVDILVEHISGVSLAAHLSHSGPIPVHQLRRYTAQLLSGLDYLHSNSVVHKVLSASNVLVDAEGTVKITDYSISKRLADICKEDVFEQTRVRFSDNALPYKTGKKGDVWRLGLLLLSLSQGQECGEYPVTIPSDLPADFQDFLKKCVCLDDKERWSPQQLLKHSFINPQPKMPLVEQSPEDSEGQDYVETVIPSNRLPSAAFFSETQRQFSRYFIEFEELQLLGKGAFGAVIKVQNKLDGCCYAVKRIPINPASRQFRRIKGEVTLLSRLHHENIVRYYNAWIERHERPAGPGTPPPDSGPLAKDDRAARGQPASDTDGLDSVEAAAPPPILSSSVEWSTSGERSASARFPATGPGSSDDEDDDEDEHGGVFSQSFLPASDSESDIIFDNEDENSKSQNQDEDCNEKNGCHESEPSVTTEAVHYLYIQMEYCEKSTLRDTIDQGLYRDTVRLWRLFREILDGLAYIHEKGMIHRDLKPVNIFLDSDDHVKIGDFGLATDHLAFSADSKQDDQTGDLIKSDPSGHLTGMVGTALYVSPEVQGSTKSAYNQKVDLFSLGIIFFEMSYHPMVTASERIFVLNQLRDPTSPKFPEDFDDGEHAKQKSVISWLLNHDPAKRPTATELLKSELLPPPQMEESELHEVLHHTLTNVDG
The data set can be described thus: in vitro kinase assay. The data set is classed as biochemical.

Data set [2] addresses T1, GCN2. The data set can be described thus: in vitro kinase assay (Gaussian activation then inhibition); thermal shift of kinase domain; competition with A92. The format is biochemical.
In another data set the target is T2, PERK (Homo sapiens, UniProt Q9NZJ5).
T2 construct: gene EIF2AK3
T2 sequence (Q9NZJ5 30-1116): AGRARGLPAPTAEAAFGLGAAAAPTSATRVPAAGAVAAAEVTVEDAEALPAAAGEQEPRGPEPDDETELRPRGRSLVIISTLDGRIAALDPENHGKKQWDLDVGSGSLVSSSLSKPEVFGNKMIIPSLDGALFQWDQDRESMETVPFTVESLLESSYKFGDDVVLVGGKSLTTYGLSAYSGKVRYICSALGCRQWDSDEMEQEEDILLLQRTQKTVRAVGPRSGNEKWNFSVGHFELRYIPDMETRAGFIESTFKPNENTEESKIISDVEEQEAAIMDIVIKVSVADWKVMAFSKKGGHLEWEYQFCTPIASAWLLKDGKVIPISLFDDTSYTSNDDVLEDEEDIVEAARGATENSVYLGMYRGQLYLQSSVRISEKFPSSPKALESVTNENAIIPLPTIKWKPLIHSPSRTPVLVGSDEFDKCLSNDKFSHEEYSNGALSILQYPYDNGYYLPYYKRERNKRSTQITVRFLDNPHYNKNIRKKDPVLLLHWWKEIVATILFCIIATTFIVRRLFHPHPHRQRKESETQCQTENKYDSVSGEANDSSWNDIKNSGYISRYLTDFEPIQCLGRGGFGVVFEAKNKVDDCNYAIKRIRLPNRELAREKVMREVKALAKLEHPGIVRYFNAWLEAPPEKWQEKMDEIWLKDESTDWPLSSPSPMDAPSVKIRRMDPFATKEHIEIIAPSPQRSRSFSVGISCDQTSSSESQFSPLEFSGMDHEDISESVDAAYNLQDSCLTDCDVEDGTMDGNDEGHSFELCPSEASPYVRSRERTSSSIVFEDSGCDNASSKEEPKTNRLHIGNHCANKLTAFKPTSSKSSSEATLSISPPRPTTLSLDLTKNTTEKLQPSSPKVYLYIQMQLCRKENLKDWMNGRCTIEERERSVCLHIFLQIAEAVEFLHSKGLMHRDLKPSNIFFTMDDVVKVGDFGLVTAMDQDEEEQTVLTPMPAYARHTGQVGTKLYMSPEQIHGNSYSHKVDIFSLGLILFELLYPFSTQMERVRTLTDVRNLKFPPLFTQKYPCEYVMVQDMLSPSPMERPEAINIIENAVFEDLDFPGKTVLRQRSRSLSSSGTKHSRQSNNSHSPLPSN
The data set can be described thus: PERK activation (mobility shift) immunoblot in tunicamycin-treated HeLa cells. The data set is classed as cell-based.

Data set [3] deals with the molecule itself. The data set can be described thus: SEC-MALS; GST-GCN2 fragment at ~1.7 mg/ml, incubated 20 min at 30 °C with DMSO or 50 µM GSK'157; Superdex 200 Increase 10/300 GL, 10 mM HEPES, 150 mM NaCl, 1 mM TCEP with DMSO or 50 µM GSK'157; same result in both conditions.

On to `Nc1ncnc2c1ncn2[C@@H]1O[C@H](CO[P@](=O)(O)O[P@](=O)(O)NP(=O)(O)O)[C@@H](O)[C@H]1O` [AMP-PNP], for which the “in vitro kinase assay” value at GCN2 [1] was ~ 250 μM.
Take `Cc1cccc(CC(=O)N2CCc3c2ccc(-c2cn(C)c4ncnc(N)c24)c3F)n1` [GSK'157, GSK2656157]: the “in vitro kinase assay (Gaussian activation then inhibition); thermal shift of ki” value at GCN2 [2] is listed as ~ 5 μM. In addition, at PERK, the “PERK activation (mobility shift) immunoblot in tunicamycin-treated HeLa cells” value was 0.02 to 10 µM.

B1: in-house recombinant GST-GCN2 fragment (192-1024) (domain or fragment, UniProt Q9P2K8 192-1024, looked up)
chain: T1 sequence (Q9P2K8 192-1024)
notes: GCN2 (eIF2alpha kinase 4), residues 192-1024; MW of the GST fusion ~135 kDa as printed; eluted with glutathione, no cleavage of GST is described; GST itself is known to dimerise, so the dimer may owe to the tag (my surmise); also called recombinant GCN2; source: Sf9 (baculovirus), purified (Glutathione Sepharose 4B, Superdex 200); not shown: GST, N-terminal, kept
With B1, the “stoichiometry N” value in data set [3] was 2.
